Experiments:
[1] = target: T1, Slug (Xenopus laevis, UniProt Q91924); experiment: EMSA, inhibition of Slug DNA-binding in embryo lysates; type: biochemical; conditions: relative to Co(III)-Ebox at 1 μM
T1 construct: 5x myc; expressed in transfected cells; host or cells: Xenopus laevis embryos injected with in vitro transcribed mRNA; whole embryo lysate, stage 8 / blastula
T1 sequence (Q91924 1-266): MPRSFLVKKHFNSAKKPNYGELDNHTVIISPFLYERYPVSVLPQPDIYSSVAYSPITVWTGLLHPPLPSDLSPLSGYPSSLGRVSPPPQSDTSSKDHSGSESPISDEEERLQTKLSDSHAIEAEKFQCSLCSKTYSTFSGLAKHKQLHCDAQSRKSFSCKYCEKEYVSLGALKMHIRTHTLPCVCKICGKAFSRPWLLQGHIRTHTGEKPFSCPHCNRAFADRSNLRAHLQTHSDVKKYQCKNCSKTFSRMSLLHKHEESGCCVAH
Description: (§1) (A) Lysates of blastula stage embryos (lane 1) or embryos with overexpressed Slug protein (lanes 2-6) were incubated with increasing concentrations of Co(III)-Ebox of 0, 0.01, 0.1 and 1 μM for 15 min prior to challenge with a ^32P-labeled Ebox containing Slug DNA probe for 30 min. (B) Lysates of blastula stage embryos injected with Slug, Snail or Sip1 mRNA (lanes 1-9) or Slug, p105, MitF and Lef-1 mRNA (lanes 10-21) were incubated with 0 or 1 μM Co(III)-Ebox for 15 min prior to challenge with ^32P-labeled Slug probe for 30 min and analyzed by EMSA on a native gel. […] Samples were analyzed by EMSA on a native TBE/acrylamide gel.
(§2) Lysates of blastula stage embryos injected with Slug mRNA were incubated with increasing concentrations of Co(1II)-Schiff base of 0, 1.5, 5, 15, 50, 150 and 500 μM (lanes 2-8) for 15 min, then incubated with ^32P-labeled Slug probe for 30 min and visualized by EMSA. Lysates of embryos injected with Slug (lanes 10 and 11), p105 (lanes 13 and 14), MitF (lanes 16 and 17) or Lef-1 (lanes 19 and 20) mRNA were incubated with 0 or 150 μM Co(1II)-Schiff base for 15 min and labeled with ^32P-labeled Slug probe for 30 min. Uninjected embryos are presented in lanes 1, 9, 12, I5 and 18. Samples were separated by EMSA. […]

[2] = target: T2, p105 (Homo sapiens, UniProt P19838); experiment: EMSA, inhibition of p105 DNA-binding in embryo lysates; type: biochemical, Xenopus laevis; conditions: high concentrations (150 μM per FIG. 4 legend)
T2 construct: 5x myc; expressed in transfected cells; host or cells: Xenopus laevis embryos injected with in vitro transcribed mRNA; whole embryo lysate
T2 sequence (P19838 1-968): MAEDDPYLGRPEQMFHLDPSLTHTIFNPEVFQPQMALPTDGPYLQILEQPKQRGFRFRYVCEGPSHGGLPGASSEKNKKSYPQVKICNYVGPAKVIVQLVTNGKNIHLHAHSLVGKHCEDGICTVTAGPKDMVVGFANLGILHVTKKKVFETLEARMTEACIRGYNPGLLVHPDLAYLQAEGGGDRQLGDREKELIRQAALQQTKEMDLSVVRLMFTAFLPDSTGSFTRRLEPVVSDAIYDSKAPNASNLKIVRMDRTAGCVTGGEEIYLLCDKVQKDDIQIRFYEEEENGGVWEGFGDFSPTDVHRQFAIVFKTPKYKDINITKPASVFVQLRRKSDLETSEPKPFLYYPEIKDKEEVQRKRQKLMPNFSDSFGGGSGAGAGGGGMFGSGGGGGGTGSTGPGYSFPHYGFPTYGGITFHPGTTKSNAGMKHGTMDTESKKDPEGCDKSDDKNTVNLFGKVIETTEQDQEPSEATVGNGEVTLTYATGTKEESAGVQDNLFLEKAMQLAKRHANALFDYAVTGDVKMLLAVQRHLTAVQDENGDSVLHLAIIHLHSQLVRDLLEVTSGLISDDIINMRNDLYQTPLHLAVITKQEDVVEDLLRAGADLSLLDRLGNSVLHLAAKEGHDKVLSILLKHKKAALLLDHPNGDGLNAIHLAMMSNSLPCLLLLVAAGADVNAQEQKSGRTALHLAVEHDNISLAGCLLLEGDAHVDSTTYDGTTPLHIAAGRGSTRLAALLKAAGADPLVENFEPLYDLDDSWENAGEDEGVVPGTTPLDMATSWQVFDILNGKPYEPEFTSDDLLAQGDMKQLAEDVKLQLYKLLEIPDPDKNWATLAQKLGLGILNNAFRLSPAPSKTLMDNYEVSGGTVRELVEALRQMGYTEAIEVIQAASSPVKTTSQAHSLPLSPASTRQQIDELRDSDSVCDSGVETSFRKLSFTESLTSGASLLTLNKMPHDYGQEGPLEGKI
Description: as §1, §2

[3] = target: T3, Lef-1 (Homo sapiens, UniProt Q9UJU2); experiment: EMSA, inhibition of Lef-1 DNA-binding in embryo lysates; type: biochemical, Xenopus laevis; conditions: high concentrations (150 μM per FIG. 4 legend)
T3 construct: 5x myc; expressed in transfected cells; host or cells: Xenopus laevis embryos injected with in vitro transcribed mRNA; whole embryo lysate
Description: as §1, §2

[4] = target: T1, Slug; experiment: In vivo assay: embryos injected with agent and Slug RNA, EMSA at blastula stage; conditions: 10 fold excess (10 μM) injected
Description: Pigmented and albino eggs were obtained and fertilized using standard protocol (Bellmeyer et al. (2003) Dev Cell 4(6):827-839, herein incorporated by reference in its entirety). All embryos are staged using the Niewenkoop-Faber method. Embryos were injected into one-cell at stage 1 in 0.4× modified ringer's (MR) solution with 3% Ficoll then transferred to 0.1×MR until harvesting. mRNA was transcribed in vitro using the SP6 Message Machine Kit (Ambion, Austin, Tex.). Concentrations of mRNA injected into one cell at the 2-cell stage range from 5-50 pg. XSip1 in the vector pCS2+ was obtained from A. Eisaki (Eisaki (2000) Biochem Biophys Res Commun 271(1):151-157, herein incorporated by reference in its entirety). cDNA was generated using PCR amplification and a high fidelity polymerase (Pfu; Roche, Indianapolis Ind.). cDNAs were cloned into a pCS2 variant that adds 5 myc tags to either the N- or C-terminus. All constructs were confirmed by sequencing using a ABI 3730 high-throughput DNA Sequencer.
For in vitro assays, whole embryo lysates were prepared by lysing 5 stage 8 embryos in 100 μL of lysis buffer (1×PBS, 1% NP-40 and Complete protease inhibitor cocktail tablets; Roche, Indianapolis, Ind.). […]

[5] = system: Snail; experiment: E-cadherin promoter firefly luciferase reporter (Snail transcriptional repression); type: cell-based; conditions: MDA-MB-231 cells, up to 250 nM
Description: MDA-MB-231 metastatic breast cancer cells express Snail1 in the nucleus. A firefly luciferase plasmid with the E-cadherin promoter region was added upstream of the transcriptional start site Snail (SEE FIG. 7A). Binding of Snail to the E-boxes thereby repress luciferase transcription and therefore luciferase activity.

T3 sequence (Q9UJU2 whole entry, species assumed): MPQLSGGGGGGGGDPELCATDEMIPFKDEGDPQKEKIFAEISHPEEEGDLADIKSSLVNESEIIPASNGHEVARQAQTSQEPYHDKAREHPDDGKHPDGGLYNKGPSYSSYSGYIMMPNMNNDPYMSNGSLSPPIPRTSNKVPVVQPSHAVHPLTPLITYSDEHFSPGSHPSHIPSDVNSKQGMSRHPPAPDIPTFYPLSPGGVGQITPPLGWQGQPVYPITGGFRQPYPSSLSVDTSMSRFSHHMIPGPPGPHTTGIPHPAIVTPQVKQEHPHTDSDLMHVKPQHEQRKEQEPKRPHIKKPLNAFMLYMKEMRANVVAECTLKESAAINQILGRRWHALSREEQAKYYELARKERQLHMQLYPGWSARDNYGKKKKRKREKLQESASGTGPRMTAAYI

[Co(III)(heptanoic acido)(acacen)(NH3)2]Cl [Co(III)-Schiff base]
Excess required to achieve inhibition of Slug comparable to Co(III)-Ebox at 1 μM [1]: 150 fold
Inhibition of p105 DNA-binding [2]: inhibited
Inhibition of Lef-1 DNA-binding [3]: inhibited
Inhibition of Slug function (DNA-binding) after injection in vivo [4]: not inhibited
Luciferase activity of E-cadherin promoter construct (Snail transcriptional activity) [5]: did not affect

From patent US20130303737A1, “TARGETED SCHIFF BASE COMPLEXES” (NORTHWESTERN UNIVERSITY, priority 2009, published 2013)
